Data as given in patent US11141404B1, “Formulations and methods for treating acute cannabinoid overdose” (Anebulo Pharmaceuticals, Inc., priority 2020, dated 2021).

How the values were obtained:
Format in all cases: in vivo
[1] = Single ascending oral dose pharmacokinetics in humans; conditions: human plasma, single oral dose 1-200 mg
Method: Human subjects were assigned to six different dosage groups of ANEB-001. Groups assigned to receive dosages of 1 mg, 5 mg, 25 mg, 100 mg, or 200 mg had six subjects each, and the 150 mg dosage group had four subjects. ANEB-001 was administered orally to subjects in each group, and the plasma concentration of ANEB-001 in each subject was measured as a function of time after dosing (FIG. 2).

rat = experiment: Repeated dose (28 day) toxicity study in rat; conditions: 28 day repeated dose
Method: (§1) Repeated dose (28 day) toxicity studies were conducted using ANEB-001 in two species, rat and primate, selected on the basis of acceptable bioavailability and comparison of metabolite profiles with those in human liver microsomes.

C57 mice = experiment: Reversal of THC-induced hypolocomotion in mice; conditions: 30 min pre-test, THC 3 mg/kg ip 10 min pre-test
Method: Reversal of THC-induced hypolocomotion in mice: Six C57 mice (Charles River, Wilmington, Mass.) were administered Δ9-tetrahydrocannabinol (THC) 3 mg/kg ip, 10 min pre-test. […] In this apparatus, four qualitatively different measures of locomotor activity are automatically scored. […] The magnitude of the effect is similar to that elicited by rimonabant given at 3 mg/kg po, and given 30 min pre-test.

cynomolgus monkey = experiment: Repeat dose (28 day) toxicity study in cynomolgus monkey; conditions: 28 day repeat dose, 160 mg/kg/day
Method: as §1

Row | SMILES | Tmax [1] | half-life ([1]; read-out: terminal elimination half-life) | no observed adverse effect level (rat) | hepatic findings (rat; 75 mg/kg/day) | adverse effects at the highest dose tested (rat; highest dose 75 mg/kg/day) | action of THC on the total active time parameter of locomotor measures (C57 mice; 30 mg/kg orally, 15 min in locomotor activity cages, FIG. 1) | adverse effects at the highest dose level studied (cynomolgus monkey) | magnitude of the effect on THC-induced hypolocomotion (total active time), compared with ANEB-001 (C57 mice; 3 mg/kg po)
1 | CC(C)(C)NC(=O)N1CC(O[C@H](c2ccc(Cl)cc2)c2ccccc2C(F)(F)F)C1 [ANEB-001, 3-[(R)-2-(trifluoromethyl)-4′-chlorobenzhydryloxy]-N-(tert-butyl)azetidine-1-carboxamide] | 1 to 1.6 h | ≤ 456 h | 75 mg/kg/day | hepatic changes consistent with an adaptive response | No adverse effects were observed | significantly reversed | no adverse effects were observed | –
2 | Cc1c(C(=O)NN2CCCCC2)nn(-c2ccc(Cl)cc2Cl)c1-c1ccc(Cl)cc1 [rimonabant, reference compound] | – | – | – | – | – | – | – | similar
